Measured values as given in ChEMBL document CHEMBL1130408, “Repromicin derivatives with potent antibacterial activity against Pasteurella multocida” (1997).
Values after ≈ are worked out from the molar mass of the structure shown.

Experiments:
Format in all cases: functional
[1] = tested on: Pasteurella multocida; experiment: Minimum inhibitory concentration required to inhibit Pasteurella multocida 59A006 in vitro
[2] = species on record: Mus musculus; experiment: Protected dose which protects 50% of challenged mice from death owing to the Pasteurella multocida (59A006) infection; details: read-out: PD50
[3] = species on record: Mus musculus; experiment: Protected dose at which the test compound protects 50% of challenged mice from death owing to the Pasteurella multocida infection; details: read-out: PD50

| SMILES | MIC [1] [µg/mL] | ED50 [2] [mg/kg] | ED50 [3] [mg/kg] |
| --- | --- | --- | --- |
| CC[C@H]1OC(=O)CC(O)[C@H](C)[C@@H](O[C@@H]2O[C@H](C)C[C@H](N(C)C)[C@H]2O)[C@@H](CCN2CCCCC2)C[C@@H](C)C(=O)/C=C/C(C)=C/[C@@H]1C (some centres not stated) | 0.2 (≈ 0.315 µM) | 150 |  |
| CC[C@H]1OC(=O)CC(O)[C@H](C)[C@@H](O[C@@H]2O[C@H](C)C[C@H](N(C)C)[C@H]2O)[C@@H](CCN2CCCCCC2)C[C@@H](C)C(=O)/C=C/C(C)=C/[C@@H]1C (some centres not stated) | 0.1 (≈ 0.154 µM) | > 200 |  |
| CC[C@H]1OC(=O)CC(O)[C@H](C)[C@@H](O[C@@H]2O[C@H](C)C[C@H](N(C)C)[C@H]2O)[C@@H](CCNCC(O)CO)C[C@@H](C)C(=O)/C=C/C(C)=C/[C@@H]1C (some centres not stated) | 0.39 (≈ 0.609 µM) | 10 |  |
| CC[C@H]1OC(=O)CC(O)[C@H](C)[C@@H](O[C@@H]2O[C@H](C)C[C@H](N(C)C)[C@H]2O)[C@@H](CCN(CCCN(C)C)C(=O)CN)C[C@@H](C)C(=O)/C=C/C(C)=C/[C@@H]1C (some centres not stated) | 0.78 (≈ 1.1 µM) | 4 |  |
| CC[C@H]1OC(=O)CC(O)[C@H](C)[C@@H](O[C@@H]2O[C@H](C)C[C@H](N(C)C)[C@H]2O)[C@@H](CCNCC(C)(C)CO)C[C@@H](C)C(=O)/C=C/C(C)=C/[C@@H]1C (some centres not stated) | 0.05 (≈ 0.0766 µM) | 26 |  |
| CC[C@H]1OC(=O)CC(O)[C@H](C)[C@@H](O[C@@H]2O[C@H](C)C[C@H](N(C)C)[C@H]2O)[C@@H](CCN(CCO)CCO)C[C@@H](C)C(=O)/C=C/C(C)=C/[C@@H]1C (some centres not stated) | 0.2 (≈ 0.305 µM) | 41 |  |
| CC[C@H]1OC(=O)CC(O)[C@H](C)[C@@H](O[C@@H]2O[C@H](C)C[C@H](N(C)C)[C@H]2O)[C@@H](CCN2CCCCCC2)C[C@@H](C)C(=O)/C=C/[C@]2(C)O[C@H]2[C@@H]1C (some centres not stated) | 0.2 (≈ 0.301 µM) | 150 |  |
| CC[C@H]1OC(=O)CC(O)[C@H](C)[C@@H](O[C@@H]2O[C@H](C)C[C@H](N(C)C)[C@H]2O)[C@@H](CCN(C)C)C[C@@H](C)C(=O)/C=C/[C@]2(C)O[C@H]2[C@@H]1C (some centres not stated) | 0.39 (≈ 0.638 µM) | > 150 |  |
| CC[C@H]1OC(=O)CC(O)[C@H](C)[C@@H](O[C@@H]2O[C@H](C)C[C@H](N(C)C)[C@H]2O)[C@@H](CCN2CCCC2)C[C@@H](C)C(=O)/C=C/[C@]2(C)O[C@H]2[C@@H]1C (some centres not stated) | 0.78 (≈ 1.22 µM) | > 150 |  |
| CC[C@H]1OC(=O)C[C@@H](O)[C@H](C)[C@@H](O[C@@H]2O[C@H](C)[C@@H](O)[C@@H](N(C)C)[C@H]2O)[C@@H](CC=O)C[C@@H](C)C(=O)/C=C/C(C)=C/[C@@H]1CO[C@@H]1O[C@H](C)[C@@H](O)[C@@H](OC)[C@H]1OC | 3.13 (≈ 4.05 µM) |  | 66 |
| CC[C@H]1OC(=O)CC(O)[C@H](C)[C@@H](O[C@@H]2O[C@H](C)C[C@H](N(C)C)[C@H]2O)[C@@H](CCN(C)CCCN(C)C)C[C@@H](C)C(=O)/C=C/C(C)=C/[C@@H]1C (some centres not stated) | 0.1 (≈ 0.15 µM) | 26 |  |
| CC[C@H]1OC(=O)CC(O)[C@H](C)[C@@H](O[C@@H]2O[C@H](C)C[C@H](N(C)C)[C@H]2O)[C@@H](CCN2CCN(C)CC2)C[C@@H](C)C(=O)/C=C/C(C)=C/[C@@H]1C (some centres not stated) | 0.39 (≈ 0.6 µM) | > 150 |  |
| CC[C@H]1OC(=O)CC(O)[C@H](C)[C@@H](O[C@@H]2O[C@H](C)C[C@H](N(C)C)[C@H]2O)[C@@H](CCN(C)C)C[C@@H](C)C(=O)/C=C/C(C)=C/[C@@H]1C (some centres not stated) | 0.39 (≈ 0.656 µM) | 150 |  |
| CC[C@H]1OC(=O)CC(O)[C@H](C)[C@@H](O[C@@H]2O[C@H](C)C[C@H](N(C)C)[C@H]2O)[C@@H](CCN(CC)CC)C[C@@H](C)C(=O)/C=C/[C@]2(C)O[C@H]2[C@@H]1C (some centres not stated) | 0.78 (≈ 1.22 µM) | 123 |  |
| CC[C@H]1OC(=O)CC(O)[C@H](C)[C@@H](O[C@@H]2O[C@H](C)C[C@H](N(C)C)[C@H]2O)[C@@H](CCNCCN(C)C)C[C@@H](C)C(=O)/C=C/C(C)=C/[C@@H]1C (some centres not stated) | 0.2 (≈ 0.314 µM) | 100 |  |
| CC[C@H]1OC(=O)CC(O)[C@H](C)[C@@H](O[C@@H]2O[C@H](C)C[C@H](N(C)C)[C@H]2O)[C@@H](CCNC(C)(C)C)C[C@@H](C)C(=O)/C=C/C(C)=C/[C@@H]1C (some centres not stated) | 0.39 (≈ 0.626 µM) | 150 |  |
| CC[C@H]1OC(=O)[C@H](C)[C@@H](O[C@H]2C[C@@](C)(OC)[C@@H](O)[C@H](C)O2)[C@H](C)[C@@H](O[C@@H]2O[C@H](C)C[C@H](N(C)C)[C@H]2O)[C@](C)(O)C[C@@H](C)CN(C)[C@H](C)[C@@H](O)[C@]1(C)O [AZITHROMYCIN] | 0.05 (≈ 0.0668 µM) |  | 16 |
| CO[C@@H]1[C@@H](O[C@@H]2O[C@H](C)[C@@H](O[C@H]3C[C@@](C)(O)[C@@H](OC(=O)CC(C)C)[C@H](C)O3)[C@H](N(C)C)[C@H]2O)[C@@H](CC=O)C[C@@H](C)C(=O)/C=C/[C@@H]2O[C@H]2C[C@@H](C)OC(=O)C[C@H]1OC(C)=O [CARBOMYCIN A] | 1.56 (≈ 1.85 µM) | > 150 |  |
| CC[C@H]1OC(=O)C[C@@H](O)[C@H](C)[C@@H](O[C@@H]2O[C@H](C)C[C@H](N(C)C)[C@H]2O)[C@@H](CC=O)C[C@@H](C)C(=O)/C=C/[C@]2(C)O[C@H]2[C@@H]1C [ROSARAMICIN] | 0.2 (≈ 0.344 µM) | 68 |  |
| CC[C@H]1OC(=O)C[C@@H](O)[C@H](C)[C@@H](O[C@@H]2O[C@H](C)[C@@H](O)[C@H](N(C)C)[C@H]2O)[C@@H](CCN2C[C@H](C)C[C@H](C)C2)C[C@@H](C)C(=O)/C=C/C(C)=C/[C@@H]1CO[C@@H]1O[C@H](C)[C@@H](O)[C@@H](OC)[C@H]1OC [TILMICOSIN] | 1.56 (≈ 1.79 µM) |  | 99 |
| CC[C@H]1OC(=O)C[C@@H](O)[C@H](C)[C@@H](O[C@@H]2O[C@H](C)[C@@H](O[C@H]3C[C@@](C)(O)[C@@H](O)[C@H](C)O3)[C@H](N(C)C)[C@H]2O)[C@@H](CC=O)C[C@@H](C)C(=O)/C=C/C(C)=C/[C@@H]1CO[C@@H]1O[C@H](C)[C@@H](O)[C@@H](OC)[C@H]1OC [TYLOSIN] | 25 (≈ 27.3 µM) | 86 |  |
